# According to the supplement of paper PMC3974653:
# Structures can show the parent of a compound that is named as a salt.
# System: MTT (mouse pheochromocytoma)
# Test: IC50 of cell viability (ATP content)
# Conditions: (24 or 48 h)
# How it was run: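 Library compounds in DMSO (23 nl by pintool, 8 concentrations, final 0.5 nM to 46 µM) were applied for 24 or 48 hrs to MTT mouse pheochromocytoma cells that had been cultured overnight at 37°C, 5% CO2 in white 1536-well plates. Cell viability was measured by CellTiter-Glo ATP luminescence, read after 15 minutes, with positive-control wells set at 100% and DMSO wells at 0%. A four-parameter logistic fit of the normalised signals yielded the IC50.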
row,SMILES,IC50 of cell viability
1,CCOC(=O)c1cccc(N)c1 [TRICAINE METHANESULFONATE],> 46 µM
2,COc1cc(N)c(Cl)cc1C(=O)N[C@@H]1CCN(CCCOc2ccc(F)cc2)C[C@H]1OC [Cisapride],> 46 µM
3,CCCCCCCCCC(=O)O [Decanoic acid],> 46 µM
4,CC[C@H](OC(C)=O)C(C[C@H](C)NC)(c1ccccc1)c1ccccc1,> 46 µM
5,CCOC(=O)C1(c2ccccc2)CCN(CCC(C#N)(c2ccccc2)c2ccccc2)CC1 [DIPHENOXYLATE HYDROCHLORIDE],> 46 µM
6,Cc1cccc(N(C)C(=S)Oc2ccc3ccccc3c2)c1 [Tolnaftate],> 46 µM
7,Cl.CN\1CCC\N=C1COC(=O)C(O)(C2CCCCC2)C3=CC=CC=C3 (stereo not given) [OXYPHENCYCLIMINE HYDROCHLORIDE],> 46 µM
8,CN1CC[C@]23c4c5ccc(O)c4OC2C(O)CCC3[C@H]1C5 (stereo not given in full) [Dihydromorphine],> 46 µM
9,CC(C)C(C)(C)C(C)(C)C(C)(C)S [tert-Dodecanethiol],> 46 µM
10,CC(=O)[O][Al]([OH])[O]C(C)=O [Aluminum subacetate],> 46 µM
11,"CCCC(=O)c1cc(O)c(O)cc1O [1-(2,4,5-trihydroxyphenyl)-1-butanone]",> 46 µM
12,CN(C)CCc1c[nH]c2ccc(CC3COC(=O)N3)cc12 (stereo not given) [ZOLMITRIPTAN],> 46 µM
13,CCN(CC)CCNC(=O)COc1ccc(OC)cc1.Cl [MEFEXAMIDE],> 46 µM
14,Cc1ccc([S+](=O)([O-])NC(=O)NN2CCCCCC2)cc1 [TOLAZAMIDE],> 46 µM
15,COC12CCC3(CC1[C@](C)(O)C(C)(C)C)[C@H]1Cc4ccc(O)c5c4[C@@]3(CCN1CC1CC1)C2O5 (stereo not given in full) [Bupenorphine],> 46 µM
16,C[C@H](C(=O)[O-])c1cccc(Oc2ccccc2)c1.C[C@H](C(=O)[O-])c1cccc(Oc2ccccc2)c1.O.O.[Ca+2] [Fenoprofen calcium salt dihydrate],> 46 µM

row,SMILES,IC50 of cell viability
1,C/C=C1/NN(CCCN2CCN(c3cccc(Cl)c3)CC2)C(=O)N1CCOc1ccccc1 [Nefazodone hydrochloride],> 46 µM
2,Cc1ccc(/N=C/N(C)/C=N/c2ccc(C)cc2C)c(C)c1 [AMITRAZ],> 46 µM
3,Cl.NCCCC(N)(C(=O)O)C(F)F (racemic) [DL-alpha-Difluoromethylornithine hydrochloride],> 46 µM
4,Cc1cccc(C)c1NC(=O)CN1CCCCCC1 [PINCAINIDUM],> 46 µM
5,CCCCc1ccc(C(=O)O)nc1 [Fusaric acid],> 46 µM
6,Oc1ncc(N(CCCl)CCCl)c(O)n1 [URACIL MUSTARD],> 46 µM
7,CCC1(CC2=C(O1)C=CC=C2)\C3=N\CCN3 (stereo not given) [EFAROXAN],> 46 µM
8,CC(C)(S)[C@@H](N)C(=O)O [PENICILLAMINE],> 46 µM
9,COc1ccc(/C=N/NC(=O)c2ccncc2)c(C(=O)O)c1OC [Opiniazida],> 46 µM
10,CCOc1cc(CC(=O)N[C@@H](CC(C)C)c2ccccc2N2CCCCC2)ccc1C(=O)O [Repaglinide],> 46 µM
11,CCCCN(CCCC)CC(O)c1cc(Cl)cc2c1-c1ccc(Cl)cc1/C2=C/c1ccc(Cl)cc1 (stereo not given) [LUMEFANTRINE],> 46 µM
12,O=C([O-])c1cc(O)c2c3nc4ccccc4oc-3cc(=O)c2n1 [PIRENOXINE],> 46 µM
13,CC1(COc2ccc(CC3SC(=O)NC3=O)cc2)CCCCC1 (stereo not given) [Ciglitizone],> 46 µM
14,Cc1onc(-c2c(F)cccc2Cl)c1C(=O)NC1C(=O)N2C1SC(C)(C)C2C(=O)[O-].O.[Na+] (stereo not given) [FLUCLOXACILLIN MAGNESIUM],> 46 µM
15,CNC1(C)C2CCC(C2)C1(C)C (stereo not given) [MECAMYLAMINE],> 46 µM

# Results, then the compound that gave them:
row,IC50 of cell viability,SMILES
1,> 46 µM,NCCCCC(NC(=O)C1CCCN1C(=O)C1CSSCC(N)C(=O)NC(Cc2ccc(O)cc2)C(=O)NC(Cc2ccccc2)C(=O)NC(CCC(N)=O)C(=O)NC(CC(N)=O)C(=O)N1)C(=O)NCC(N)=O (stereo not given) [[Lys8]-Vasopressin]
2,> 46 µM,CCCC(=O)Nc1c(I)cc(I)c(C[C@H](CC)C(=O)O)c1I [TYROPANOATE SODIUM]
3,> 46 µM,C[C@H](CS)C(=O)N1CCC[C@H]1C(=O)O [CAPTOPRIL]
4,> 46 µM,C/C=C\C[C@H](C)[C@H](O)[C@H]1C(=O)N[C@@H](CC)C(=O)N(C)CC(=O)N(C)[C@@H](CC(C)C)C(=O)N[C@@H](C(C)C)C(=O)N(C)[C@@H](CC(C)C)C(=O)N[C@@H](C)C(=O)N[C@@H](C)C(=O)N(C)[C@@H](CC(C)C)C(=O)N(C)[C@@H](CC(C)C)C(=O)N(C)[C@@H](C(C)C)C(=O)N1C [Cyclosporin A]
5,> 46 µM,"CC(O)COc1ccccc1 (stereo not given) [2-Propanol, 1-phenoxy-]"
6,> 46 µM,CC(=O)C[C@H](C1=CC=C(C=C1)[N+]([O-])=O)\C2=C(/O)C3=C(OC2=O)C=CC=C3 [Acenocoumarol]
7,> 46 µM,FC(F)(F)c1ccccc1-n1ccnc1 [TRIM]
8,> 46 µM,O=C1CC\C(=N/N1)C2=CC=C(C=C2)[N]3C=CN=C3 [Imazodan]
9,> 46 µM,CCN(CC)CCNC(=O)c1cc(Cl)c(N)cc1OC [METOCLOPRAMIDE]
10,> 46 µM,NC(N)=N[S+](=O)([O-])c1ccc(N)cc1 [Sulfaguanidine]
11,> 46 µM,Cc1cccn2c(=O)c(-c3nnn[n-]3)cnc12 [PEMIROLAST POTASSIUM]
12,> 46 µM,N[S+](=O)([O-])c1cc2c(cc1Cl)N[C@H](Cc1ccccc1)N[S+]2(=O)[O-] [Benzylhydrochlorothiazide]
13,> 46 µM,CCCN(CCC)CCc1cccc2c1CC(=O)N2 [ROPINROLE]
14,> 46 µM,CCCCNC(=O)N[S+](=O)([O-])c1ccc(C)cc1 [TOLBUTAMIDE]
15,> 46 µM,CC1=C(C(=O)OCCN(Cc2ccccc2)c2ccccc2)C(c2cccc([N+](=O)[O-])c2)C(P2(=O)OCC(C)(C)CO2)=C(C)N1 (stereo not given) [Efonidipine]
16,> 46 µM,Cn1c(=O)c2c(ncn2CCO)n(C)c1=O [7-(beta-HYDROXYETHYL)THEOPHYLLINE]
17,> 46 µM,CC(=O)O[C@@H](C)C[N+](C)(C)C [Methacholine chloride]
18,> 46 µM,CCN(CC)C(=S)S [DITIOCARBUM NATRICUM]
19,> 46 µM,Cn1c(=O)c2[nH]c(Br)nc2n(C)c1=O [PAMABROM]
20,> 46 µM,CN(C)CC/C=C1\c2ccccc2COc2ccccc21 [Doxepin hydrochloride]
21,> 46 µM,CC(C)OC(=O)C(\C(=O)OC(C)C)=C1\SC=CS1 [malotilate]
22,> 46 µM,Cc1ccc(/C=N/n2c(-c3ccccc3)csc2=S)cc1 [FEZATIONE]
23,> 46 µM,Cc1cc(C(C)(C)CC(C)(C)C)ccc1OCCOCC[N+](C)(C)Cc1ccccc1 [Methylbenzethonium chloride]
24,> 46 µM,CN1C2CCC1CC(OC(=O)c1c[nH]c3ccccc13)C2 (stereo not given) [TROPISETRON]
